According to patent publication US9101133B2, “Phenyl-substituted bicyclooctane-1,3-dione-derivatives” (BAYER INTELLECTUAL PROPERTY GMBH, priority 2010, dated 2015):

Assays:
Format in all cases: in vivo
[1] = test system: monocotylidonous and dicotylidonous weed and crop plants; assay: Herbicidal pre-emergence action; details: 320 g/ha, visual assessment after three weeks, 100% = plants have died; for herbicidal effect in percent, ALOMY: ALOMY = Alopecurus myosuroides; for herbicidal effect in percent, AVEFA: AVEFA = Avena fatua; for herbicidal effect in percent, ECHCG: ECHCG = Echinochloa crus-galli; for herbicidal effect in percent, LOLMU: LOLMU = Lolium multiflorum; for herbicidal effect in percent, SETVI: SETVI = Setaria viridis; for herbicidal effect in percent, VIOTR: VIOTR = Viola tricolor
Description: 1. Herbicidal Pre-Emergence Action
• Seeds of monocotylidonous and dicotylidonous weed and crop plants are placed in sandy loam in wood fibre pots and covered with soil. The test compounds, formulated in the form of wettable powders (WP), are then, as an aqueous suspension with a water application rate of 600 l/ha (converted), with 0.2% of wetting agent added, applied to the surface of the covering soil in different amounts. • After the treatment, the pots are placed in a greenhouse and kept under good growth conditions for the test plants. The visual assessment of the emergence damage on the test plants is carried out after a trial period of three weeks by comparison with the untreated controls (herbicidal effect in percent: 100% effect=the plants have died, 0% effect=like control plants).

LOLMU = assay: Herbicidal post-emergence action; details: 80 g/ha, visual assessment after about three weeks, 100% = plants have died
Method: (§1) 2. Herbicidal Post-Emergence Action
(§2) • Seeds of monocotylidonous and dicotylidonous weed and crop plants are placed in sandy loam in wood fibre pots, covered with soil and cultivated in a greenhouse under good growth conditions. Two to three weeks after sowing, the test plants are treated at the one-leaf stage. The test compounds, formulated as wettable powders (WP), are then with a water application rate of 600 l/ha (converted), with 0.2% of wetting agent added, sprayed onto the green parts of the plants in different amounts. After the test plants have been kept in the greenhouse under optimum growth conditions for about three weeks, the effect of the preparations is assessed visually in comparison to untreated controls (herbicidal effect in percent: 100% effect=the plants have died, 0% effect=like control plants). Post-Emergence, 80 g/ha

SETVI = assay: Herbicidal post-emergence action; details: visual assessment after about three weeks, 100% = plants have died; for herbicidal effect in percent, SETVI: 80 g/ha; for pest or weed control at 80 g/ha: 504 h, read-out: herbicidal effect in percent, SETVI
Method: as §1, §2

ECHCG = assay: Herbicidal post-emergence action; details: 80 g/ha, visual assessment after about three weeks, 100% = plants have died
Method: as §1, §2

ALOMY = assay: Herbicidal post-emergence action; details: 80 g/ha, visual assessment after about three weeks, 100% = plants have died
Method: as §1, §2

AVEFA = assay: Herbicidal post-emergence action; details: 80 g/ha, visual assessment after about three weeks, 100% = plants have died
Method: as §1, §2

SMILES | herbicidal effect in percent, ALOMY [1] [%] | herbicidal effect in percent, AVEFA [1] [%] | herbicidal effect in percent, ECHCG [1] [%] | herbicidal effect in percent, LOLMU [1] [%] | herbicidal effect in percent, SETVI [1] [%] | herbicidal effect in percent, VIOTR [1] [%] | herbicidal effect in percent, LOLMU (LOLMU) [%] | herbicidal effect in percent, SETVI (SETVI) [%] | herbicidal effect in percent, ECHCG (ECHCG) [%] | herbicidal effect in percent, ALOMY (ALOMY) [%] | herbicidal effect in percent, AVEFA (AVEFA) [%] | pest or weed control at 80 g/ha (SETVI) [%]
CCc1cc(C)cc(CC)c1C1C(=O)C2CC(C3OCCO3)CC2C1=O (stereo not shown) [I-a-10] | 100 | 90 | 100 | 100 | 100 | 90 | 100 | 100 | 100 | 100 | 100 | –
CCc1cc(C)cc(CC)c1C1=C(OC(=O)C(C)(C)C)C2CC(/C=N/OC)CC2C1=O (stereo not shown) [I-b-1, 2-(2,6-Diethyl-4-methylphenyl)-5-(methoxyimino)methyl-3-oxo-3,3a,4,5,6,6a-hexahydropentalen-1-yl 2,2-dimethylpropanoate] | 100 | 90 | 100 | 100 | 100 | 90 | 100 | – | 100 | 100 | 100 | 100
CCc1cc(C)cc(CC)c1C1=C(OC(=O)C(C)(C)C)C2CC(C3OCCCO3)CC2C1=O (mixture of isomers) [I-b-3] | 100 | 90 | 100 | 100 | 100 | 90 | 100 | – | 100 | 100 | – | –
CCc1cc(C)cc(CC)c1C1=C(OC(=O)C(C)(C)C)C2CC(C(OC)OC)CC2C1=O (mixture of isomers) [I-b-5] | 100 | 100 | 100 | 100 | 90 | – | 100 | 100 | 100 | 100 | 100 | –
CCc1cc(C)cc(CC)c1C1=C(OC(=O)C(C)C)C2CC(COC(C)=O)CC2C1=O (mixture of isomers) [I-b-23] | – | – | – | – | – | – | 90 | 90 | 100 | 80 | 90 | –
CCOC(=O)OC1=C(c2c(CC)cc(C)cc2CC)C(=O)C2CC(CCC#N)CC12 (mixture of isomers) [I-c-21] | – | – | – | – | – | – | 100 | 90 | 100 | – | 100 | –
CCc1cc(C)cc(CC)c1C1C(=O)C2CC(C(C)=O)CC2C1=O (mixture of isomers) [I-a-33] | – | – | – | – | – | – | 100 | 90 | 100 | 100 | 100 | –
CCc1cc(C)cc(CC)c1C1=C(OC(=O)OC(C)C)C2CC(C=NOC)CC2C1=O (mixture of isomers) [I-c-14] | – | – | – | – | – | – | 100 | 100 | 100 | 100 | 100 | –
CCOC(=O)CC1CC2C(=O)C(c3c(CC)cc(C)cc3CC)=C(OC(=O)OCC)C2C1 (mixture of isomers) [I-c-16] | – | – | – | – | – | – | – | 80 | 80 | – | – | –
CCc1cc(C)cc(CC)c1C1C(=O)C2CC(CCC(C)=NOC)CC2C1=O (racemic) [I-a-42, 2-(2,6-diethyl-4-methylphenyl)-5-[3-methoxyiminobutyl]-tetrahydropentalene-1,3-dione] | – | – | – | – | – | – | 100 | – | 100 | 90 | 100 | 100
CCOC(=O)CC1CC2C(=O)C(c3c(CC)cc(C)cc3CC)=C(OCC)C2C1 (mixture of isomers) [I-a-81] | – | – | – | – | – | – | 80 | 90 | 80 | 80 | – | –
CCOC(=O)OC1=C(c2c(CC)cc(C)cc2CC)C(=O)C2CC(CCC(C)=NOC)CC12 (mixture of isomers) [I-c-24] | – | – | – | – | – | – | 100 | 100 | 100 | 90 | 80 | –
CCOC(=O)OC1=C(c2c(CC)cc(C)cc2CC)C(=O)C2CC(C(C)=NOC)CC12 (mixture of isomers) [I-c-18] | – | – | – | – | – | – | 100 | – | 90 | 100 | 80 | –
CCc1cc(C)cc(CC)c1C1C(=O)C2CC(C(C)O)CC2C1=O (mixture of isomers) [I-a-41] | – | – | – | – | – | – | 100 | 100 | 100 | 100 | 100 | –
CCOC(=O)OC1=C(c2c(CC)cc(C)cc2CC)C(=O)C2CC(C(C)=O)CC12 (mixture of isomers) [I-c-17] | – | – | – | – | – | – | 100 | 80 | 90 | 90 | 90 | –
CCc1cc(C)cc(CC)c1C1C(=O)C2CC(CSC)CC2C1=O (mixture of isomers) [I-a-60] | – | – | – | – | – | – | 90 | 90 | 100 | 90 | 90 | –
CCc1cc(C)cc(CC)c1C1C(=O)C2CC(C=O)CC2C1OC(=O)C(C)(C)C (stereo not shown) [I-b-2, 2-(2,6-diethyl-4-methylphenyl)-5-formyl-3-oxooctahydropentalen-1-yl 2,2-dimethylpropanoate] | 80 | 80 | 100 | 100 | 90 | – | – | – | 100 | – | – | 100
Cc1cc(C)c(C2C(=O)C3CC(C4OCCO4)CC3C2=O)c(C)c1 (mixture of isomers) [I-a-30] | – | – | – | – | – | – | 90 | 90 | 90 | – | – | –
CCOC(=O)OC1=C(c2c(CC)cc(C)cc2CC)C(=O)C2CC(COC(C)=O)CC12 (mixture of isomers) [I-c-15] | – | – | – | – | – | – | 90 | 80 | 90 | – | – | –
CCc1cc(C)cc(CC)c1C1=C(OCc2ccccc2)C2CC(CBr)CC2C1=O (mixture of isomers) [I-a-61] | – | – | – | – | – | – | 90 | 90 | 90 | – | – | –
Cc1cc(C)c(C2C(=O)C3CC(C4OCCCO4)CC3C2=O)c(C)c1 (mixture of isomers) [I-a-32] | – | – | – | – | – | – | 90 | 90 | 80 | – | – | –
Cc1cc(C)c(C2C(=O)C3CC(C=NOC(C)C)CC3C2=O)c(C)c1 (mixture of isomers) [I-a-31] | – | – | – | – | – | – | 90 | 100 | 90 | 90 | 80 | –
CCc1cc(C)cc(CC)c1C1C(=O)C2CC(C(C)=NOC)CC2C1=O (mixture of isomers) [I-a-34] | – | – | – | – | – | – | 100 | 90 | 100 | 100 | – | –
CCc1cc(C)cc(CC)c1C1C(=O)C2CC(CCC(C)=O)CC2C1=O (stereo not shown) [I-a-39, 2-(2,6-diethyl-4-methylphenyl)-5-(3-oxobutyl)-tetrahydropentalene-1,3-dione] | – | – | – | – | – | – | 100 | – | 100 | 100 | – | 100
